According to patent US20260053834A1, “COVALENT MODIFIERS OF AKT1 AND USES THEREOF” (Terremoto Biosciences, Inc., priority 2023, published 2026):

Tests used:
[1] = system: LAPC4 prostate cancer cells, which express the AKT1 E17K allele; test: Antiproliferative effects in LAPC4 cells (CellTiter Glo, 72 h); type: cell-based; conditions: Homo sapiens, LAPC4, 72 h, read-out: LAPC4 proliferation IC50: GeoMean IC50
In short: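 IC50 values come from Hill-equation fitting of luminescence (cellular ATP) after 72 h compound exposure. Treated wells held 1,000 cells each, with compound delivered as DMSO dilutions. Culture medium was IMDM plus 12% FBS.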

AKT1 E17K = target: T1, AKT1 E17K (Homo sapiens, UniProt P31749, E17K); test: Live cell target engagement by NanoBRET competitive probe displacement, AKT1 E17K; type: binding; conditions: transfected HEK293 cells, 2 h at 37° C., read-out: AKT1 E17K IC50: GeoMean IC50
T1 construct: expressed in transfected cells; host or cells: HEK293
T1 sequence (P31749 whole entry E17K): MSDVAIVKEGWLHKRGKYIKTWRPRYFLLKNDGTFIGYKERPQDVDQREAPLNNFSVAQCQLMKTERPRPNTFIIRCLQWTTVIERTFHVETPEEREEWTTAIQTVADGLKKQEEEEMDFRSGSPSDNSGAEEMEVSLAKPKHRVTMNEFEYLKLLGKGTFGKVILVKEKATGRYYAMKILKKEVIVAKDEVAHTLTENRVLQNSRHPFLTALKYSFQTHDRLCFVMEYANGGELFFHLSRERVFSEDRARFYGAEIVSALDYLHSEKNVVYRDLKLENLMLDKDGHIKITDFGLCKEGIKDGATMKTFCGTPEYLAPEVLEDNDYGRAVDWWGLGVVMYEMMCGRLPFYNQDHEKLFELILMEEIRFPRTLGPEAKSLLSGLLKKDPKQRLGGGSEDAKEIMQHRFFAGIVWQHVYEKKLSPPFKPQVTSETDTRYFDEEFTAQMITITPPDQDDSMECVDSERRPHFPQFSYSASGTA

AKT1 WT = target: T2, AKT1 WT (Homo sapiens, UniProt P31749); test: Live cell target engagement by NanoBRET competitive probe displacement, AKT1 WT; type: binding; conditions: transfected HEK293 cells, 2 h at 37° C., read-out: AKT1 WT IC50: GeoMean IC50
T2 construct: expressed in transfected cells; host or cells: HEK293
T2 sequence (P31749 whole entry): as the sequence (P31749 whole entry E17K) above, with K17E counted along it

AKT2 = target: T3, AKT2 (Homo sapiens, UniProt P31751); test: Live cell target engagement by NanoBRET competitive probe displacement, AKT2; type: binding; conditions: transfected HEK293 cells, 2 h at 37° C., read-out: AKT2 IC50: GeoMean IC50
T3 construct: expressed in transfected cells; host or cells: HEK293
T3 sequence (P31751 whole entry): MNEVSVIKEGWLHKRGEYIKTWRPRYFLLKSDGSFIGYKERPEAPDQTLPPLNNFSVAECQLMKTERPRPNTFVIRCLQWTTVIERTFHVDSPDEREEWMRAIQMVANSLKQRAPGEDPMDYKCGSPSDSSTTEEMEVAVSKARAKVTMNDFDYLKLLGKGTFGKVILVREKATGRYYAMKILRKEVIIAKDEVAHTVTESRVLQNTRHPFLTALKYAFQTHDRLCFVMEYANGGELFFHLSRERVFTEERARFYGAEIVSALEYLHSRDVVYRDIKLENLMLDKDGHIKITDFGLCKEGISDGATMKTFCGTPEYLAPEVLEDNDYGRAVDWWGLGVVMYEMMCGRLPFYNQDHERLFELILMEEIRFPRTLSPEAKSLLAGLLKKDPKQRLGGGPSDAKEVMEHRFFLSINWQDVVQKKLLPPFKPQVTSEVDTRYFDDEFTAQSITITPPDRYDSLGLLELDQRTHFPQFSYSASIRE

IC50 [1] | IC50 (AKT1 E17K) | IC50 (AKT1 WT) | IC50 (AKT2) | Structure (SMILES)
10 to 100 nM | 10 to 100 nM | 10 to 100 nM | 100 to 2000 nM | CS(=O)(=O)Nc1ccc(C(=O)N[C@H]2CCc3cc(-n4c(-c5cccnc5N)nc5ccc(-n6cccn6)nc54)ccc32)cc1C=O [Example 86, N-[(1S)-5-[2-(2-aminopyridin-3-yl)-5-(pyrazol-1-yl)imidazo[4,5-b]pyridin-3-yl]-2,3-dihydro-1H-inden-1-yl]-3-formyl-4-methanesulfonamidobenzamide]
100 to 2000 nM | 10 to 100 nM | 100 to 2000 nM | ≥ 2000 nM | Nc1ncccc1-c1nc2ccc(NC3CC3)nc2n1-c1ccc2c(c1)CC[C@@H]2NC(=O)c1ccc(O)c(C=O)c1 [Example 87, (S)—N-(5-(2-(2-aminopyridin-3-yl)-5-(cyclopropylamino)-3H-imidazo[4,5-b]pyridin-3-yl)-2,3-dihydro-1H-inden-1-yl)-3-formyl-4-hydroxybenzamide]
10 to 100 nM | 10 to 100 nM | 10 to 100 nM | 100 to 2000 nM | Nc1ncccc1-c1nc2ccc(-c3cscn3)nc2n1-c1ccc2c(c1)CC[C@@H]2NC(=O)c1ccc(O)c(C=O)c1 [Example 88, N-[(1S)-5-[2-(2-aminopyridin-3-yl)-5-(1,3-thiazol-4-yl)imidazo[4,5-b]pyridin-3-yl]-2,3-dihydro-1H-inden-1-yl]-3-formyl-4-hydroxybenzamide]
100 to 2000 nM | 100 to 2000 nM | 10 to 100 nM | 100 to 2000 nM | Nc1ncccc1-c1nc2ccc(-c3ccccc3)nc2n1-c1ccc2c(c1)CC[C@@H]2NC(=O)c1ccc(O)c(C=O)n1 [Example 89, (S)—N-(5-(2-(2-aminopyridin-3-yl)-5-phenyl-3H-imidazo[4,5-b]pyridin-3-yl)-2,3-dihydro-1H-inden-1-yl)-6-formyl-5-hydroxypicolinamide]
100 to 2000 nM | 10 to 100 nM | 100 to 2000 nM | 100 to 2000 nM | N#Cc1cnn(-c2ccc3nc(-c4cccnc4N)n(-c4ccc5c(c4)CC[C@@H]5NC(=O)c4ccc(O)c(C=O)c4)c3n2)c1 [Example 90, N-[(1S)-5-[2-(2-aminopyridin-3-yl)-5-(4-cyanopyrazol-1-yl)imidazo[4,5-b]pyridin-3-yl]-2,3-dihydro-1H-inden-1-yl]-3-formyl-4-hydroxybenzamide]
10 to 100 nM | 10 to 100 nM | 10 to 100 nM | 100 to 2000 nM | Nc1ncccc1-c1nc2ccc(-n3nccn3)nc2n1-c1ccc2c(c1)CC[C@@H]2NC(=O)c1ccc(O)c(C=O)c1 [Example 91, N-[(1S)-5-[2-(2-aminopyridin-3-yl)-5-(1,2,3-triazol-2-yl)imidazo[4,5-b]pyridin-3-yl]-2,3-dihydro-1H-inden-1-yl]-3-formyl-4-hydroxybenzamide]
100 to 2000 nM | 10 to 100 nM | 10 to 100 nM | 100 to 2000 nM | Nc1ncccc1-c1nc2ccc(-n3ccnn3)nc2n1-c1ccc2c(c1)CC[C@@H]2NC(=O)c1ccc(O)c(C=O)c1 [Example 92, N-[(1S)-5-[2-(2-aminopyridin-3-yl)-5-(1,2,3-triazol-1-yl)imidazo[4,5-b]pyridin-3-yl]-2,3-dihydro-1H-inden-1-yl]-3-formyl-4-hydroxybenzamide]
100 to 2000 nM | 10 to 100 nM | 10 to 100 nM | 100 to 2000 nM | Nc1ncccc1-c1nc2ccc(-n3cccn3)nc2n1-c1ccc2c(c1)CC[C@@H]2NC(=O)c1cc(Cl)c(O)c(C=O)c1 [Example 93, N-[(1S)-5-[2-(2-aminopyridin-3-yl)-5-(pyrazol-1-yl)imidazo[4,5-b]pyridin-3-yl]-2,3-dihydro-1H-inden-1-yl]-3-chloro-5-formyl-4-hydroxybenzamide]
100 to 2000 nM | 10 to 100 nM | 100 to 2000 nM | 100 to 2000 nM | Nc1ncccc1-c1nc2ccc(-n3cc(C(F)F)cn3)nc2n1-c1ccc2c(c1)CC[C@@H]2NC(=O)c1ccc(O)c(C=O)c1 [Example 94, N-[(1S)-5-[2-(2-aminopyridin-3-yl)-5-[4-(difluoromethyl)pyrazol-1-yl]imidazo[4,5-b]pyridin-3-yl]-2,3-dihydro-1H-inden-1-yl]-3-formyl-4-hydroxybenzamide]
